From article PMC8348686, “The Pharmacological Profile of Second Generation Pyrovalerone Cathinones and Related Cathinone Derivative” (International Journal of Molecular Sciences, 2021)
Like-named read-outs stand apart in the source and are kept apart here.

Tests used:
h5-HT2C receptor = molecular target: T1, h5-HT2C receptor (Homo sapiens, UniProt P28335); assay: Radioligand binding, [3H]-mesulgerine
T1 construct: expressed in transfected cells; host or cells: HEK293 cell preparations
T1 sequence (P28335 33-458): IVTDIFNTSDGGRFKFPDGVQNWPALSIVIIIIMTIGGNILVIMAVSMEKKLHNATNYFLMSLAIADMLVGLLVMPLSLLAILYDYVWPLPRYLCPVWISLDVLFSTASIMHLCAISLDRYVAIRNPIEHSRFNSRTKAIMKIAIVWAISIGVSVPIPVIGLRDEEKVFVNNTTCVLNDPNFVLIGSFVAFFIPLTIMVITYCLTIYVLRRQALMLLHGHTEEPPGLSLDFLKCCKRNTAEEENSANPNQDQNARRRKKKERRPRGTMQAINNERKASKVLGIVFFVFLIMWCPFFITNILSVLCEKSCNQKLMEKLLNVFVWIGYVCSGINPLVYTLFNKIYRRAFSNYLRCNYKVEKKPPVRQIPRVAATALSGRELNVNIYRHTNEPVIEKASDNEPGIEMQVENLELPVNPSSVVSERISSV
Experimental: The radioligand binding assays for the human 5-HT1A, 5-HT2A, and 5-HT2C receptors were examined as previously described by. In summary, the human embryonic kidney 293 (HEK293) cell preparations were stably transfected with the human 5-HT1A, 5-HT2A or 5-HT2C receptors and then incubated with their respective radiolabelled ligands at a concentration equal to the dissociation constant, Kd. The following radioligands were used for the 5-HT1A, 5-HT2A, and 5-HT2C receptors, respectively; 0.90 nM [^3H]8-hydroxy-2-(dipropylamino) tetralin (8-OH-DPAT), 0.40 nM [^3H]ketanserin, and 1.4 nM [^3H]mesulgerine. The radioligand displacement for each examined drug was determined. Specific binding of the radioligand to the target was calculated by subtracting the nonspecific binding (in the presence of the receptor’s competitor in excess) from the total observed binding. The following radioligand competitors were used for the 5-HT1A, 5-HT2A, and 5-HT2C receptors, respectively; 10 μM pindolol (5-HT1A receptor), 10 μM spiperone (5-HT2A receptor), and 10 μM mianserin (5-HT2C receptor).

h5-HT2A receptor = h5-HT2A receptor (Homo sapiens, UniProt P28223); assay: Activation potency, FLIPR calcium assay in NIH-3T3 cells; format: cell-based; parameters: expressed in transfected cells
Experimental: Mouse embryonic fibroblasts (NIH-3T3) were transfected with the human 5-HT2A receptors, seed into 96-well plates coated with poly-D-lysine at a concentration of 70,000 cell per 0.1 mL and then incubated for 1 h at 37 °C in HEPES-Hank’s Balanced Salt Solution (HBSS) buffer (Gibco). Next, the plates were exposed to 100 μL/well of dye solution for 1 h at 37 °C inside the FLIPR (fluorescence imagining plate reader [FLIPR] calcium 5 assay kit; Molecular Devices, Sunnyvale, CA, USA). Then, the plates were exposed to the 25 μL/well of test drugs dissolved in HEPES–HBSS buffer and 250 mM probencid during online mode. The corresponding concentration vs. response curves were fitted using nonlinear regression and the EC50 values were calculated. The efficacy (maximal activity) was calculated relative to 5-HT activity, which was defined as 100%.

[1] = molecular target: T2, human dopamine (hDAT) uptake transporter (Homo sapiens, UniProt Q01959); assay: Monoamine uptake inhibition, dopamine uptake in transfected HEK293 cells; format: cell-based
T2 construct: expressed in transfected cells; host or cells: HEK293
Experimental: (§1) The monoamine uptake transporter inhibition was examined in accordance with previously described methods by for each substance of interest.
(§2) Human embryonic kidney 293 (HEK293) cells (Invitrogen, Zug, Switzerland) stably transfected with the human norepinephrine (hNET), dopamine (hDAT), or serotonin (hSERT) uptake transporters were briefly cultured in Dulbecco’s modified Eagle’s medium (DMEM; Gibco, Life Technologies, Zug, Switzerland) containing 10% fetal bovine serum and 250 μg/mL geneticin (Gibco, Life Technologies, Zug, Switzerland). Next, the cells were detached at a confluency of 70−90% and resuspended in Krebs–Ringer Bicarbonate Buffer (Sigma-Aldrich, Buchs, Switzerland) at a concentration of 3 × 10^6 cells per ml. The uptake buffer was additionally supplemented with 0.2 mg/mL of ascorbic acid (Sigma–Aldrich, Buchs, Switzerland) for the [^3H]-DA uptake experiments.
(§3) In summary, using round bottom 96-well plates, 100 μL of cell suspension was incubated in 25 μL of buffer containing test substances, vehicle control (0.7% dimethyl sulfoxide, DMSO), or 10 μM of the respective monoamine uptake inhibitor, mainly fluoxetine (SERT), nisoxetine (NET), or mazindol (DAT) for 10 min at room temperature while on a rotary shaker at 450 rpm (Thermomixer Comfort, Eppendorf, Hamburg, Germany). Thereafter, the monoamine uptake transporter was initiated by the addition of 50 μL of each respective radiolabelled neurotransmitter ([^3H]-5-HT, [^3H]-DA or [^3H]-NE) dissolved in the uptake buffer to a final concentration of 5 nM for an additional 10 min. Then, 100 μL of cell suspension mixture was transferred to microcentrifuge tubes containing 50 μL of 3 M potassium hydroxide (KOH, Sigma–Aldrich, Buchs, Switzerland) and 200 μL silicon oil (1:1 mixture of silicon oil type AR20 and AR200; Sigma–Aldrich, Buchs, Switzerland). Immediately after, the tubes were centrifugated (3 min, 13200 rpm) to terminate the uptake reaction by allowing the cells to move through the silicon oil into the KOH, which then lysed the cells. Quickly after, the tubes were immediately frozen with liquid nitrogen. Afterwards, the frozen cell pellet was cut off into 6 mL scintillation vials (Perkin–Elmer, Schwerzenbach, Switzerland) filled with 500 μL of lysis buffer (5 mM EDTA, 0.05 M TRIS-HCl, 50 mM NaCl and 1% NP-40 in water). Directly after the vials were shaken for 1 h at 700 rpm and then each vial was filled with 3 mL of scintillation fluid (Ultimagold, Perkin–Elmer, Schwerzenbach, Switzerland). The uptake of the monoamines was measured using a liquid scintillation counter (Packard Tri-Carb Liquid Scintillation Counter 1900 TR).
(§4) The data were analysed using Prism software (version 8, GraphPad, San Diego, CA, USA) and was fitted by a nonlinear regression to variable-slope sigmoidal dose-response curve. The IC50 values were extracted in order to determine each drug’s inhibition potency at the various monoamine transporters.

[2] = molecular target: T3, human serotonin (hSERT) uptake transporter (Homo sapiens, UniProt P31645); assay: Monoamine uptake inhibition, serotonin uptake in transfected HEK293 cells; format: cell-based
T3 construct: expressed in transfected cells; host or cells: HEK293
Experimental: as §1, §2, §3, §4

dopaminergic D2 receptor = dopaminergic D2 receptor (Homo sapiens, UniProt P14416); conditions: read-out: D2 Receptor Binding Ki ± SD, [3H]-Spiperone, cited from earlier work
hDAT = hDAT (Homo sapiens, UniProt Q01959); conditions: read-out: hDAT Receptor Binding Ki ± SD, [3H]-WIN-35,428, cited from earlier work
Mouse TAAR1 = conditions: [3H]-RO5166017, read-out: Mouse TAAR1 Receptor Binding Ki ± SD, cited from earlier work
[3] = ref Luethi, Kolaczynska et al. (2019)

Sequence of h5-HT2A receptor (P28223 whole entry): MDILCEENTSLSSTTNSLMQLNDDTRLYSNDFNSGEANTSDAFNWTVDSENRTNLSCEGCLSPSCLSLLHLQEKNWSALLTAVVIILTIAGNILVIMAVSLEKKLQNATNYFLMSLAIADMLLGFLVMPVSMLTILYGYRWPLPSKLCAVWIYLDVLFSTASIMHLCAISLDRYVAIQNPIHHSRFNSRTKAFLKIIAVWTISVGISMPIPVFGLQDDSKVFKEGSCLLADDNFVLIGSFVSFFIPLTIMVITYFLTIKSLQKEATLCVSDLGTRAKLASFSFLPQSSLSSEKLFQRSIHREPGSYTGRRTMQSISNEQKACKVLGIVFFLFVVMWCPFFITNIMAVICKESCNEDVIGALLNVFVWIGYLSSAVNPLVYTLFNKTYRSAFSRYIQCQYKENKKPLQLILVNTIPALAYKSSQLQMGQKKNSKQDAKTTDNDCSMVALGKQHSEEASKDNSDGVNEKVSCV
T3 sequence (P31645 whole entry): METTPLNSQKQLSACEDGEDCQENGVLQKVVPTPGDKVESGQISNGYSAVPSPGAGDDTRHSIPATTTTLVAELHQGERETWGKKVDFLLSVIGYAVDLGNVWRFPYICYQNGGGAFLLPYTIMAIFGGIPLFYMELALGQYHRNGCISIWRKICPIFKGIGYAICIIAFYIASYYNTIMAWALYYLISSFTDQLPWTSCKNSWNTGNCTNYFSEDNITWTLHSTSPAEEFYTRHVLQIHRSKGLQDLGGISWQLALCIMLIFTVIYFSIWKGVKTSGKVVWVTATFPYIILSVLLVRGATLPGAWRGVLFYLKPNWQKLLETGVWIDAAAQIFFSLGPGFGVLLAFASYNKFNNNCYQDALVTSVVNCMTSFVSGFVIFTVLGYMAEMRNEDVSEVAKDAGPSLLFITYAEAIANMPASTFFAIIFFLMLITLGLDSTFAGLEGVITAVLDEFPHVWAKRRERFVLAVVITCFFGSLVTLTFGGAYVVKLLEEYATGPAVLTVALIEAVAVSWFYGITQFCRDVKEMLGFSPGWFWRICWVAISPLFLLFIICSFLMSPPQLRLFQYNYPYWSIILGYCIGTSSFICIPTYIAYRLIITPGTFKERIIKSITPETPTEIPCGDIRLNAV
Sequence of hDAT (Q01959 whole entry): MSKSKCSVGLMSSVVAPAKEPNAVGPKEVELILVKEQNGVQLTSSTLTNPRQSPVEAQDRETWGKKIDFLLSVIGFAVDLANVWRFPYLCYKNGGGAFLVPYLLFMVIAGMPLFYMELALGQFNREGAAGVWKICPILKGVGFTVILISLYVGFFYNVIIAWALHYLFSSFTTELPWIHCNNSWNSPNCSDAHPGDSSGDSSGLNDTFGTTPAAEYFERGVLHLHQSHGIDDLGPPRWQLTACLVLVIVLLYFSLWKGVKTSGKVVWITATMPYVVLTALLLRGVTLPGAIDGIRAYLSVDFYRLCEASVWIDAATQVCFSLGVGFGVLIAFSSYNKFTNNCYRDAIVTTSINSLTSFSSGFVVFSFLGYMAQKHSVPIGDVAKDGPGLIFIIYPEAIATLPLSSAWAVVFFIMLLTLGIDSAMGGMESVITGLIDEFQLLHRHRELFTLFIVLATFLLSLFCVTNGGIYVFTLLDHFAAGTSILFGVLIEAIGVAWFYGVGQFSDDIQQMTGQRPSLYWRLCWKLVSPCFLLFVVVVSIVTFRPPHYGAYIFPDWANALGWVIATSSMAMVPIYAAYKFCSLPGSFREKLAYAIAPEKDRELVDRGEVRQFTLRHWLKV
T2 sequence (Q01959 whole entry): as above
Sequence of dopaminergic D2 receptor (P14416 whole entry): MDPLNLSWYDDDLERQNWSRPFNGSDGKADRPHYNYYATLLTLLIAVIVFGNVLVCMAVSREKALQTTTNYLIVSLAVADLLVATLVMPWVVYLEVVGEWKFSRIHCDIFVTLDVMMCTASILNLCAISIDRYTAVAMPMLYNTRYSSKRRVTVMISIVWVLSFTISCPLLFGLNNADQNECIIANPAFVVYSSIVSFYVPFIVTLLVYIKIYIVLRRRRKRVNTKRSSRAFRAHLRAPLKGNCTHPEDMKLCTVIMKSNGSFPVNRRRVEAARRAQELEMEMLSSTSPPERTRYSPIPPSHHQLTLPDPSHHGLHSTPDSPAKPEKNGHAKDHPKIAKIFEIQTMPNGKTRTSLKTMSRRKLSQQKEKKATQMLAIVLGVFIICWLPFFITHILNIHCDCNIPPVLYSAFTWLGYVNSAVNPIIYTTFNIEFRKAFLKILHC

## CCCCC(C(=O)c1ccc(C)cc1)N1CCCC1 (stereo not drawn) [MPHP, 4-methyl-α-pyrrolidinohexanophenone]
h5-HT2C receptor
  Ki: > 15 µM
h5-HT2A receptor
  EC50: > 20 µM
[1]
  IC50: 0.06 µM
[2]
  IC50: 11 µM

## CCC(C(=O)c1ccc(F)cc1)N1CCCC1 (stereo not drawn) [4F-PBP, 4-fluoro-α-pyrrolidinobutiophenone]
h5-HT2C receptor
  Ki: > 15 µM
h5-HT2A receptor
  EC50: > 20 µM
[1]
  IC50: 0.5 µM
[2]
  IC50: 177 µM

## CC(C(=O)c1ccccc1)N1CCCC1 (stereo not drawn) [α-PPP, α-pyrrolidinopropiophenone]
h5-HT2C receptor
  Ki: > 15 µM
h5-HT2A receptor
  EC50: > 20 µM
[1]
  IC50: 0.56 µM
[1]; (1/DAT IC50):(1/SERT IC50)
  DAT/SERT Ratio (95% CI): >1000
[2]
  IC50: > 1000 µM

## CCCCC(C(=O)c1ccccc1)N1CCCC1 (stereo not drawn) [α-PHP, α-pyrrolidinohexanophenone]
h5-HT2C receptor
  Ki: > 15 µM
h5-HT2A receptor
  EC50: > 20 µM
[1]
  IC50: 0.06 µM
[1]; (1/DAT IC50):(1/SERT IC50)
  DAT/SERT Ratio (95% CI): >1000
[1]; compared to α-PPP
  fold higher potency at the DAT: 9 fold
[2]
  IC50: 245 µM

## CCCCC(NCC)C(=O)c1ccccc1 (stereo not shown) [NEH, N-ethylamine-hexanophenone]
h5-HT2C receptor
  Ki: > 15 µM
h5-HT2A receptor
  EC50: > 20 µM
[1]
  IC50: 0.18 µM
[2]
  IC50: 47 µM

## CCCC(C(=O)c1ccccc1)N1CCCC1 (stereo not drawn) [α-PVP, α-pyrrolidinopentiophenone]
h5-HT2C receptor
  Ki: > 15 µM
Dopaminergic D2 receptor; ref Rickli et al. (2015)
  Ki: > 10 µM
h5-HT2A receptor
  EC50: > 20 µM
[1]
  IC50: 0.03 µM
[1]; (1/DAT IC50):(1/SERT IC50)
  DAT/SERT Ratio (95% CI): >1000
[1]; compared to α-PPP
  fold higher potency at the DAT: 17 fold
hDAT; ref Rickli et al. (2015)
  Ki: 0.007 ± 0.002 µM
Mouse TAAR1; ref Rickli et al. (2015)
  Ki: > 20 µM
[2]
  IC50: 279 µM

## CNC(C)Cc1ccc2c(c1)OCO2 (stereo not shown) [MDMA, 3,4-methylenedioxymethamphetamine, reference compound]
Dopaminergic D2 receptor; [3]
  Ki: > 13 µM
[1]
  IC50: 13 µM
hDAT; [3]
  Ki: > 8.5 µM
Mouse TAAR1; [3]
  Ki: 3.1 ± 0.7 µM
[2]
  IC50: 1.6 µM

## CCC(C(=O)c1ccc2c(c1)OCO2)N1CCCC1 (stereo not drawn) [MDPBP, 3,4-methylenedioxy-α-pyrrolidinobutiophenone]
h5-HT2C receptor
  Ki: > 15 µM
Dopaminergic D2 receptor; ref Rickli et al. (2015)
  Ki: > 20 µM
h5-HT2A receptor
  EC50: > 20 µM
[1]
  IC50: 0.07 µM
hDAT; ref Rickli et al. (2015)
  Ki: 0.02 ± 0.002 µM
Mouse TAAR1; ref Rickli et al. (2015)
  Ki: > 20 µM
[2]
  IC50: 11 µM

## COc1ccc(C(=O)C(C)N2CCCC2)cc1 (stereo not drawn) [MOPPP, 4-methoxy-α-pyrrolidinopropiophenone]
h5-HT2C receptor
  Ki: > 15 µM
h5-HT2A receptor
  EC50: > 20 µM
[1]
  IC50: 4.6 µM
[1]; (1/DAT IC50):(1/SERT IC50)
  DAT/SERT Ratio (95% CI): 20 (4.0–40)
[1]; compared to α-PPP
  fold lower inhibition potency at the DAT: 8 fold
[2]
  IC50: 94 µM

## CC(C(=O)c1ccc2c(c1)OCO2)N1CCCC1 (stereo not drawn) [MDPPP, 3,4-methylenedioxy-α-pyrrolidinopropiophenone]
h5-HT2C receptor
  Ki: > 15 µM
Dopaminergic D2 receptor; ref Rickli et al. (2015)
  Ki: > 10 µM
h5-HT2A receptor
  EC50: > 20 µM
[1]
  IC50: 0.54 µM
hDAT; ref Rickli et al. (2015)
  Ki: 0.18 ± 0.05 µM
Mouse TAAR1; ref Rickli et al. (2015)
  Ki: > 20 µM
[2]
  IC50: 43 µM

## CCCC(C(=O)c1ccc(C)cc1)N1CCCC1 (stereo not shown) [Pyrovalerone, pyrovalerone]
h5-HT2C receptor
  Ki: > 15 µM
Dopaminergic D2 receptor; ref Simmler et al. (2013)
  Ki: > 30 µM
h5-HT2A receptor
  EC50: > 20 µM
[1]
  DAT/SERT Ratio (95% CI): 256 (125–450)
  IC50: 0.05 µM
[1]; listed as pyrovalerone
  DAT/SERT Ratio (95% CI): > 72
hDAT; ref Simmler et al. (2013)
  Ki: 0.03 ± 0.01 µM
Mouse TAAR1; ref Simmler et al. (2013)
  Ki: > 10 µM
[2]
  IC50: 13 µM

## Cc1ccc(C(=O)C(C)N2CCCC2)cc1 (stereo not drawn) [4-MePPP, 4-methyl-α-pyrrolidinopropiophenone]
h5-HT2C receptor
  Ki: > 5.1 µM
h5-HT2A receptor
  EC50: > 10 µM
[1]
  IC50: 0.75 µM
[1]; compared to pyrovalerone and MPHP
  fold lower potency at the DAT: 15 fold
[2]
  IC50: 55 µM

## CCCC(C(=O)c1ccc2c(c1)OCO2)N1CCCC1 (stereo not shown) [MDPV, 3,4-methylenedioxypyrovalerone]
h5-HT2C receptor
  Ki: > 15 µM
Dopaminergic D2 receptor; ref Simmler et al. (2013)
  Ki: > 30 µM
h5-HT2A receptor
  EC50: > 20 µM
[1]
  IC50: 0.03 µM
hDAT; ref Simmler et al. (2013)
  Ki: 0.01 ± 0.002 µM
Mouse TAAR1; ref Simmler et al. (2013)
  Ki: > 10 µM
[2]
  IC50: 8.4 µM

## CCCCC(C(=O)c1ccc2c(c1)OCO2)N1CCCC1 (stereo not drawn) [MDPHP, 3,4-methylenedioxy-α-pyrrolidinohexanophenone]
h5-HT2C receptor
  Ki: > 15 µM
h5-HT2A receptor
  EC50: > 20 µM
[1]
  IC50: 0.05 µM
[2]
  IC50: 9 µM
